Reference: patent US8461328B2, “Tricyclic heterocyclic compounds, compositions and methods of use thereof” (Genentech, Inc., priority 2010, dated 2013)

Experiments:
Format in all cases: biochemical
JAK1 = target: T1, JAK1 (Homo sapiens, UniProt P23458); assay: JAK1 inhibition (Table 4); conditions: read-out: JAK1 Ki
T1 construct: made in house; host or cells: SF9 insect cells (baculovirus)

JAK2 = target: T2, JAK2 (Homo sapiens, UniProt O60674); assay: JAK2 inhibition (Table 4); conditions: read-out: JAK2 Ki
T2 construct: made in house; host or cells: SF9 insect cells (baculovirus)
T2 sequence (O60674 812-1132): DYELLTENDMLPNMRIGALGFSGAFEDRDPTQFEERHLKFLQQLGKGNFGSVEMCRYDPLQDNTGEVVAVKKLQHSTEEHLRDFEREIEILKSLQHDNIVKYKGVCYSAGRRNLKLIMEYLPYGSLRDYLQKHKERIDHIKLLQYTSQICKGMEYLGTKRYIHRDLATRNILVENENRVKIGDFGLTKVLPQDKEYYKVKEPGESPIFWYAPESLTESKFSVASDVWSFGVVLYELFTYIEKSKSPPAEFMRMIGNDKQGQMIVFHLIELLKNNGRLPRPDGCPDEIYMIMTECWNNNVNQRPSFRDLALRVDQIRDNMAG

JAK3 = target: T3, JAK3 (Homo sapiens, UniProt P52333); assay: JAK3 inhibition (Table 4); conditions: read-out: JAK3 Ki
T3 construct: made in house; host or cells: SF9 insect cells (baculovirus)
T3 sequence (P52333 783-1124): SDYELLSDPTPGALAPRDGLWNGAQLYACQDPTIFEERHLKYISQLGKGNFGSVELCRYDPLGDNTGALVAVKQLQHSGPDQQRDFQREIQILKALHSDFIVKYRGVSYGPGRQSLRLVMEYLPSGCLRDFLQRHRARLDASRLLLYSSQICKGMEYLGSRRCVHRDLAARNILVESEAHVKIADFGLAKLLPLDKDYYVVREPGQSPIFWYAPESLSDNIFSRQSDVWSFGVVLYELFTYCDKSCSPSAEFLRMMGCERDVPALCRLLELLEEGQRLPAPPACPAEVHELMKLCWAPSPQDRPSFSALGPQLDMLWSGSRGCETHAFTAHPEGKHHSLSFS

TYK2 = target: T4, TYK2 (Homo sapiens, UniProt P29597); assay: TYK2 inhibition (Table 4)
T4 construct: made in house; host or cells: SF9 insect cells (baculovirus)
T4 sequence (P29597 873-1187): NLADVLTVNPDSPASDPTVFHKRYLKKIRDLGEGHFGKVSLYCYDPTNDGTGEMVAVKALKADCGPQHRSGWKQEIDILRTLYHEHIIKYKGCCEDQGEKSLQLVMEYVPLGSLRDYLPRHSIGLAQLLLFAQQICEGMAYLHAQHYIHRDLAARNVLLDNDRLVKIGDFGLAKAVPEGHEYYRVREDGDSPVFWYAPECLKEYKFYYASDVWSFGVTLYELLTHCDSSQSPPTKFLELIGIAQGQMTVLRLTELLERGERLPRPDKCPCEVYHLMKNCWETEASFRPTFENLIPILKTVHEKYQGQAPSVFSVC

T1 sequence (P23458 852-1154): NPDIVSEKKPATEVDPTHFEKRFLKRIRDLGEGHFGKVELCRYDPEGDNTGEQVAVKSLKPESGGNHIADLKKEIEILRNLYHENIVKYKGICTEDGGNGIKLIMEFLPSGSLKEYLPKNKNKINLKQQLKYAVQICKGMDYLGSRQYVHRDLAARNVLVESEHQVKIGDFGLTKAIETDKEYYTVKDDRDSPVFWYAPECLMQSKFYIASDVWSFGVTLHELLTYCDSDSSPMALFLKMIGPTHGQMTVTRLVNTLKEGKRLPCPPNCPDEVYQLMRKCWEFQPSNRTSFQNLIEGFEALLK

Ki (JAK1) [nM]	Ki (JAK2) [nM]	Ki (JAK3) [nM]	Ki (TYK2) [nM]	Compound
9	12.4	19.5	233	CN(CC(F)(F)F)C(=O)NC1CCC(n2nnc3cnc4[nH]ccc4c32)C1 (racemic) [Example 622, Racemic trans 1-Methyl-3-[3-(6H-1,2,3,5,6-pentaaza-as-indacen-1-yl)-cyclopentyl]-1-(2,2,2-trifluoro-ethyl)-urea]
45.6	333	316	438	CNC(=O)Cc1nc2cnc3[nH]ccc3c2n1C1CCCOC1 (racemic) [Example 961, N-Methyl-2-[1-(tetrahydro-pyran-3-yl)-1,6-dihydro-1,3,5,6-tetraaza-as-indacen-2-yl]-acetamide]
348	191	905	1640	CC(C)(C)OC(=O)N1CC(n2cnc3cnc4[nH]ccc4c32)C1 [Example 3, 3-(6H-1,2,3,5,6-Tetraaza-as-indacen-1-yl)-azetidine-1-carboxylic acid tert-butyl ester]
9.45	13.7	66.4	71.7	N#CCC(=O)N1CCC[C@@H](n2c(C(F)(F)F)nc3cnc4[nH]ccc4c32)C1 [Example 302, 3-Oxo-3-[(R)-3-(2-trifluoromethyl-6H-1,3,5,6-tetraaza-as-indacen-1-yl)-piperidin-1-yl]-propionitrile]
27.1	36.5	316	398	O=C(N[C@H]1CC[C@H](n2cnc3cnc4[nH]ccc4c32)CC1)N1CCOCC1 [Example 593, Trans Morpholine-4-carboxylic acid [4-(6H-1,2,3,5,6-tetraaza-as-indacen-1-yl)-cyclohexyl]-amide]
4.01	77.1	195	138	CS(=O)(=O)NCCc1nc2cnc3[nH]ccc3c2n1[C@H]1CCCOC1 [Example 854, (S)—N-{2-[1-(Tetrahydro-pyran-3-yl)-1,6-dihydro-1,3,5,6-tetraaza-as-indacen-2-yl]-ethyl}-methanesulfonamide]
2.15	11.1	28.9	11.3	COCCN1CC[C@H](n2c([C@@H](C)O)nc3cnc4[nH]ccc4c32)C(F)(F)C1 [Example 1013, (R)-1-{1-[(S)-3,3-Difluoro-1-(2-methoxy-ethyl)-piperidin-4-yl]-1,6-dihydro-1,3,5,6-tetraaza-as-indacen-2-yl}-ethanol]
5.78	51.4	9.7	442	O=C(Cc1nc2cnc3[nH]ccc3c2n1C1CCN(Cc2ccccc2)CC1)N1CCS(=O)(=O)CC1 [Example 102, 2-[1-(1-Benzyl-piperidin-4-yl)-1,6-dihydro-1,3,5,6-tetraaza-as-indacen-2-yl]-1-(1,1-dioxo-1λ*6*thiomorpholin-4-yl)ethanone]
2.9	5.78	37.4	94.6	CC(C)(C)OC(=O)NC1CC(n2cnc3cnc4[nH]ccc4c32)C1 (stereo not shown) [Example 317, [3-(6H-1,3,5,6-Tetraaza-as-indacen-1-yl)-cyclobutyl]-carbamic acid tert-butyl ester]
0.78	0.93	17	3.7	CC(CC#N)N1CCC(n2cnc3cnc4[nH]ccc4c32)CC1 (racemic) [Example 305, 3-[4-(6H-1,3,5,6-Tetraaza-as-indacen-1-yl)-piperidin-1-yl]-butyronitrile]
131	891	361	1170	O=C(Cc1nc2cnc3[nH]ccc3c2n1C1CCCOC1)N1CCCC1 (racemic) [Example 968, 1-Pyrrolidin-1-yl-2-[1-(tetrahydro-pyran-3-yl)-1,6-dihydro-1,3,5,6-tetraaza-as-indacen-2-yl]-ethanone]
28.7	58.7	41	394	N#CCCN1CCC(n2c(CNC(=O)C3CC3)nc3cnc4[nH]ccc4c32)CC1 [Example 500, Cyclopropanecarboxylic acid {1-[1-(2-cyano-ethyl)-piperidin-4-yl]-1,6-dihydro-1,3,5,6-tetraaza-as-indacen-2-ylmethyl}-amide]
9.49	22.8	35.4	96.8	CC(CC#N)N1CCC(n2c(CC3CC3)nc3cnc4[nH]ccc4c32)CC1 (racemic) [Example 401, 3-[4-(2-Cyclopropylmethyl-6H-1,3,5,6-tetraaza-as-indacen-1-yl)-piperidin-1-yl]-butyronitrile]
34.8	29.9	33.5	173	CC(C1CCCO1)n1cnc2cnc3[nH]ccc3c21 (single isomer, unassigned) [Example 418, 1-[1-(Tetrahydro-furan-2-yl)-ethyl]-1,6-dihydro-1,3,5,6-tetraaza-as-indacene]
22.2	171	84.8	179	C[C@@H](O)c1nc2cnc3[nH]ccc3c2n1C1CCN(Cc2cncn2C)CC1 [Example 823, (R)-1-{1-[1-(3-Methyl-3H-imidazol-4-ylmethyl)-piperidin-4-yl]-1,6-dihydro-1,3,5,6-tetraaza-as-indacen-2-yl}-ethanol]
2.13	16.3	84.6	209	CC(O)c1nc2cnc3[nH]ccc3c2n1C1CCN(Cc2cccc(C#N)c2)CC1 (racemic) [Example 156, Racemic 3-{4-[2-(1-Hydroxy-ethyl)-6H-1,2,3,5,6-tetraaza-as-indacen-1-yl]-piperidin-1-ylmethyl}-benzonitrile]
1.72	23.9	98	7.93	C[C@@H](O)c1nc2cnc3[nH]ccc3c2n1[C@H]1CC[C@H](NCC(F)(F)F)C1 [Example 1008, (R)-1-{1-[(1S,3S)-3-(2,2,2-Trifluoro-ethylamino)-cyclopentyl]-1,6-dihydro-1,3,5,6-tetraaza-as-indacen-2-yl}-ethanol]
91.9	1540	862	1470	c1cnn(Cc2nc3cnc4[nH]ccc4c3n2C2CCNCC2)c1 [Example 204, 1-Piperidin-4-yl-2-pyrazol-1-ylmethyl-1,6-dihydro-1,2,3,5,6-tetraaza-as-indacene]
7.15	17.8	89.2	86	O=C(NC1CCC(n2cnc3cnc4[nH]ccc4c32)CC1)OCc1cccnc1 (stereo not shown) [Example 744, [4-(6H-1,3,5,6-tetraaza-as-indacen-1-yl)-cyclohexyl]-carbamic acid pyridin-3-ylmethyl ester]
8.6	13.3	283	64.6	O=C(Cc1ccccc1)N1CCC(n2cnc3cnc4[nH]ccc4c32)CC1 [Example 7, 2-Phenyl-1-[4-(6H-1,2,3,5,6-tetraaza-as-indacen-1-yl)-piperidin-1-yl]-ethanone]
3.22	11.6	37.1	113	CN(CC(F)(F)F)C(=O)NC1CCC(n2cnc3cnc4[nH]ccc4c32)CC1 (stereo not shown) [Example 745, 1-methyl-3-[4-(6H-1,3,5,6-tetraaza-as-indacen-1-yl)-cyclohexyl]-1-(2,2,2-trifluoro-ethyl)-urea]
3.93	9.66	82.7	25.1	N#C[C@H]1CC[C@H](n2cnc3cnc4[nH]ccc4c32)CC1 [Example 640, trans 4-(6H-1,2,3,5,6-Tetraaza-as-indacen-1-yl)-cyclohexanecarbonitrile]
7.48	6.5	16.6	35.4	CS(=O)(=O)N1CCC[C@@H](n2cnc3cnc4[nH]ccc4c32)C1 [Example 9, 1-((R)-1-Methanesulfonyl-piperidin-3-yl)-1,6-dihydro-1,2,3,5,6-tetraaza-as-indacene]
11.4	38.6	79.8	77.5	OC1CCC(n2cnc3cnc4[nH]ccc4c32)C1 (stereo not shown) [Example 708, 3-(6H-1,2,3,5,6-Tetraaza-as-indacen-1-yl)-cyclopentanol]
2.91	8.02	17	25.3	Cc1nc2cnc3[nH]ccc3c2n1C1CCC(C)(O)CC1 (stereo not drawn) [Example 994, Trans-1-Methyl-4-(2-methyl-6H-1,3,5,6-tetraaza-as-indacen-1-yl)-cyclohexanol]
216	342	1160	3190	O=C([C@H]1CCCN1)N1CCC(n2cnc3cnc4[nH]ccc4c32)CC1 [Example 248, (R)-Pyrrolidin-2-yl-[4-(6H-1,3,5,6-tetraaza-as-indacen-1-yl)-piperidin-1-yl]-methanone]
12	44.9	225	88.2	COC1CNCCC1n1c(C)nc2cnc3[nH]ccc3c21 (racemic) [Example 535, 1-(3-Methoxy-piperidin-4-yl)-2-methyl-1,6-dihydro-1,3,5,6-tetraaza-as-indacene]
0.53	2.05	9.11	1.49	N#CCC[C@H]1CC[C@H](n2c(CO)nc3cnc4[nH]ccc4c32)CC1 [Example 646, 3-[4-(2-hydroxymethyl-6H-1,2,3,5,6-tetraaza-as-indacen-1-yl)-cyclohexyl]-propionitrile]
